From US9000025B2, “Autotaxin inhibitors and uses thereof” (Amira Pharmaceuticals, Inc., priority 2010, dated 2015) come the findings set out here.

Molecules are shown by their SMILES. Some results are limits rather than exact numbers.

The target in the assay is T1, autotaxin (ATX) (Homo sapiens, UniProt Q13822).
T1 construct: conditioned medium from the human melanoma cell line, MDA-MB-4355, which endogenously expresses autotaxin; host or cells: MDA-MB-435S human melanoma cells; serum-free conditioned medium, concentrated 20-fold
As to the kind of experiment: Native Autotaxin Choline Release Assay. The format is biochemical. Particulars: autotaxin in conditioned medium from human melanoma cell line; choline released from LPC; read-out: MDA-MB-435S Assay IC50. Here is the method:
ATX activity is determined by measuring the amount of choline realeased from the substrate, lyosphophatidylcholine (LPC). […] After reaching confluency, the cells are washed twice with phosphate-buffered saline (PBS) then cultured for 48 hours in phenol-red free, serum-free DMEM containing sodium pyruvate. […] 100 μl of a color mix which contains 4.5 mM 4-aminoantipyrine, 2.7 mM N-ethyl-N-(2-hydroxy-3-sulfopropyl)-m-toluidine, 21 units/ml horseradish peroxidase and 3 units/ml choline oxidase in 50 mM Tris, pH 8, 4.5 mM MgCl2 is added and the incubation continued at 37° C. for 10 minutes before reading the absorbance at 555 nm. The concentration of released choline in the sample is determined from a choline standard curve and is equal to the concentration of LPA produced.
With `COc1ccc(C(=O)O)cc1Sc1c(C)n(-c2cccnc2)c2cc(Cl)ccc12` [Compound 1-40, 3-(6-Chloro-2-methyl-1-pyridin-3-yl-1H-indol-3-ylsulfanyl)-4-methoxy-benzoic acid], the IC50 was above 1000 nM.
Under `COc1ccc(C(=O)O)cc1Sc1c(C)n(-c2cnn(C)c2)c2cc(Cl)ccc12` [Compound 1-41, 3-[6-Chloro-2-methyl-1-(1-methyl-1H-pyrazol-4-yl)-1H-indol-3-ylsulfanyl]-4-methoxy-benzoic acid] stands above 1000 nM; under `Cc1c(Sc2cccc(C(=O)O)c2)c2ccc(Cl)cc2n1-c1cnsc1` [Compound 1-42, 3-(6-Chloro-1-isothiazol-4-yl-2-methyl-1H-indol-3-ylsulfanyl)-benzoic acid], below 300 nM; under `CCn1cc(-n2c(C)c(Sc3cccc(C(=O)O)c3)c3ccc(Cl)cc32)cn1` [Compound 1-43, 3-[6-Chloro-1-(1-ethyl-1H-pyrazol-4-yl)-2-methyl-1H-indol-3-ylsulfanyl]-benzoic acid], below 300 nM.
Under `Cc1c(Sc2cccc(C(=O)O)c2)c2ccc(Cl)cc2n1-c1cnn(C(C)C)c1` [Compound 1-44, 3-[6-Chloro-1-(1-isopropyl-1H-pyrazol-4-yl)-2-methyl-1H-indol-3-ylsulfanyl]-benzoic acid] stands below 300 nM.
The figure for `Cc1c(Sc2cccc(CC(=O)O)c2)c2ccc(Cl)cc2n1-c1cnn(C)c1` [Compound 1-45, {3-[6-Chloro-2-methyl-1-(1-methyl-1H-pyrazol-4-yl)-1H-indol-3-ylsulfanyl]-phenyl}-acetic acid] is below 300 nM.
As for `Cc1c(Sc2cc(C(=O)O)cc(C(F)(F)F)c2)c2ccc(Cl)cc2n1-c1cccnc1` [Compound 1-46, 3-(6-Chloro-2-methyl-1-pyridin-3-yl-1H-indol-3-ylsulfanyl)-5-trifluoromethyl-benzoic acid], the half-maximal inhibitory concentration (IC50) was above 1000 nM.
`COc1ccc(CC(=O)O)cc1Sc1c(C)n(-c2cnn(C)c2)c2cc(Cl)ccc12` [Compound 1-47, {3-[6-Chloro-2-methyl-1-(1-methyl-1H-pyrazol-4-yl)-1H-indol-3-ylsulfanyl]-4-methoxy-phenyl}-acetic acid]: the 50% inhibitory concentration (IC50) was above 1000 nM.
With `Cc1cncc(-n2c(C)c(Sc3cccc(CC(=O)O)c3)c3ccc(Cl)cc32)c1` [Compound 1-48, {3-[6-Chloro-2-methyl-1-(5-methyl-pyridin-3-yl)-1H-indol-3-ylsulfanyl]-phenyl}-acetic acid], the concentration for half-maximal inhibition (IC50) was below 300 nM.
Under `CCC(C(=O)O)c1cccc(Sc2c(C)n(-c3cccnc3)c3cc(Cl)ccc23)c1` (stereo not shown) [Compound 1-49, 2-[3-(6-Chloro-2-methyl-1-pyridin-3-yl-1H-indol-3-ylsulfanyl)-phenyl]-butyric acid] stands below 300 nM.
For `Cc1ccc(C(=O)O)cc1Sc1c(C)n(-c2cnn(C)c2)c2cc(Cl)ccc12` [Compound 1-50, 3-[6-Chloro-2-methyl-1-(1-methyl-1H-pyrazol-4-yl)-1H-indol-3-ylsulfanyl]-4-methyl-benzoic acid], the IC50 was above 1000 nM.
The figure for `CCn1cc(-n2c(C)c(Sc3cc(Br)cc(C(=O)O)c3)c3ccc(Cl)cc32)cn1` [Compound 1-51, 3-Bromo-5-[6-chloro-1-(1-ethyl-1H-pyrazol-4-yl)-2-methyl-1H-indol-3-ylsulfanyl]-benzoic acid] is above 1000 nM.
The figure for `CCn1cc(-n2c(C)c(Sc3cc(C)cc(C(=O)O)c3)c3ccc(Cl)cc32)cn1` [Compound 1-52, 3-[6-Chloro-1-(1-ethyl-1H-pyrazol-4-yl)-2-methyl-1H-indol-3-ylsulfanyl]-5-methyl-benzoic acid] is above 1000 nM; for `Cc1c(Sc2cc(C(=O)O)cc(C(F)(F)F)c2)c2ccc(Cl)cc2n1-c1cnn(C)c1` [Compound 1-53, 3-[6-Chloro-2-methyl-1-(1-methyl-1H-pyrazol-4-yl)-1H-indol-3-ylsulfanyl]-5-trifluoromethyl-benzoic acid] it is above 1000 nM; for `Cc1ccc(C(=O)O)cc1Sc1c(C)n(-c2cccnc2)c2cc(Cl)ccc12` [Compound 1-54, 3-(6-Chloro-2-methyl-1-pyridin-3-yl-1H-indol-3-ylsulfanyl)-4-methyl-benzoic acid] it is above 1000 nM.
The figure for `Cc1c(Sc2cccc(C(=O)O)c2)c2ccc(Cl)cc2n1-c1cnn(CC(F)(F)F)c1` [Compound 1-55, 3-{6-Chloro-2-methyl-1-[1-(2,2,2-trifluoro-ethyl)-1H-pyrazol-4-yl]-1H-indol-3-ylsulfanyl}-benzoic acid] is below 300 nM; for `Cc1cncc(-n2c(C)c(Sc3cccc(C(=O)O)c3)c3ccc(Cl)cc32)c1` [Compound 1-56, 3-[6-Chloro-2-methyl-1-(5-methyl-pyridin-3-yl)-1H-indol-3-ylsulfanyl]-benzoic acid] it is below 300 nM.
As to `CCCn1cc(-n2c(C)c(Sc3cccc(C(=O)O)c3)c3ccc(Cl)cc32)cn1` [Compound 1-57, 3-[6-Chloro-2-methyl-1-(1-propyl-1H-pyrazol-4-yl)-1H-indol-3-ylsulfanyl]-benzoic acid], the IC50 was below 300 nM.
The figure for `Cc1c(Sc2cccc(C(=O)O)c2)c2ccc(Cl)cc2n1-c1cnn(-c2ccccc2)c1` [Compound 1-58, 3-[6-Chloro-2-methyl-1-(1-phenyl-1H-pyrazol-4-yl)-1H-indol-3-ylsulfanyl]-benzoic acid] is below 300 nM; for `Cc1c(Sc2cccc(C(=O)O)c2)c2ccc(Cl)cc2n1-c1cnn(Cc2ccccc2)c1` [Compound 1-59, 3-[1-(1-Benzyl-1H-pyrazol-4-yl)-6-chloro-2-methyl-1H-indol-3-ylsulfanyl]-benzoic acid] it is below 300 nM.
Under `Cc1nn(C)cc1-n1c(C)c(Sc2cccc(C(=O)O)c2)c2ccc(Cl)cc21` [Compound 1-60, 3-[6-Chloro-1-(1,3-dimethyl-1H-pyrazol-4-yl)-2-methyl-1H-indol-3-ylsulfanyl]-benzoic acid] stands below 300 nM.
The figure for `COc1c(Sc2c(C)n(-c3cnn(C)c3)c3cc(Cl)ccc23)cccc1C(=O)O` [Compound 1-61, 3-[6-Chloro-2-methyl-1-(1-methyl-1H-pyrazol-4-yl)-1H-indol-3-ylsulfanyl]-2-methoxy-benzoic acid] is below 300 nM; for `CCn1cc(-n2c(C)c(Sc3cccc(C(=O)O)c3OC)c3ccc(Cl)cc32)cn1` [Compound 1-62, 3-[6-Chloro-2-methyl-1-(1-ethyl-1H-pyrazol-4-yl)-1H-indol-3-ylsulfanyl]-2-methoxy-benzoic acid] it is below 300 nM.
`Cc1c(Sc2c(C)n(-c3cnn(C)c3)c3cc(Cl)ccc23)cccc1C(=O)O` [Compound 1-63, 3-[6-Chloro-2-methyl-1-(1-methyl-1H-pyrazol-4-yl)-1H-indol-3-ylsulfanyl]-2-methyl-benzoic acid]: the concentration for half-maximal inhibition (IC50) is below 300 nM.
As to `CCn1cc(-n2c(C)c(Sc3cccc(C(=O)O)c3C)c3ccc(Cl)cc32)cn1` [Compound 1-64, 3-[6-Chloro-2-methyl-1-(1-ethyl-1H-pyrazol-4-yl)-1H-indol-3-ylsulfanyl]-2-methyl-benzoic acid], the IC50 is below 300 nM.
Take `Cc1cncc(-n2c(C)c(Sc3cccc(C(=O)O)c3C)c3ccc(Cl)cc32)c1` [Compound 1-65, 3-[6-Chloro-2-methyl-1-(5-methyl-pyridin-3-yl)-1H-indol-3-ylsulfanyl]-2-methyl-benzoic acid]: the concentration for half-maximal inhibition (IC50) is below 300 nM.
The figure for `Cc1cncc(-n2c(C)c(Sc3cccc(C(=O)O)c3F)c3ccc(Cl)cc32)c1` [Compound 1-66, 3-[6-Chloro-2-methyl-1-(5-methyl-pyridin-3-yl)-1H-indol-3-ylsulfanyl]-2-fluoro-benzoic acid] is below 300 nM; for `CCn1cc(-n2c(C)c(Sc3cccc(C(=O)O)c3F)c3ccc(Cl)cc32)cn1` [Compound 1-67, 3-[6-Chloro-2-methyl-1-(1-ethyl-1H-pyrazol-4-yl)-1H-indol-3-ylsulfanyl]-2-fluoro-benzoic acid] it is below 300 nM.
Regarding `Cc1ccc(-n2c(C)c(Sc3cccc(C(=O)O)c3)c3ccc(Cl)cc32)nn1` [Compound 1-68, 3-[6-Chloro-2-methyl-1-(6-methyl-pyridazin-3-yl)-1H-indol-3-ylsulfanyl]-benzoic acid], the half-maximal inhibitory concentration (IC50) lay within 300 to 1000 nM.
Under `CCn1cc(-n2c(C)c(Sc3cccc(CC(=O)O)c3)c3ccc(Cl)cc32)cn1` [Compound 1-69, {3-[6-Chloro-1-(1-ethyl-1H-pyrazol-4-yl)-2-methyl-1H-indol-3-ylsulfanyl]-phenyl}-acetic acid] stands below 300 nM; under `CCCn1cc(-n2c(C)c(Sc3cccc(CC(=O)O)c3)c3ccc(Cl)cc32)cn1` [Compound 1-70, {3-[6-Chloro-1-(1-propyl-1H-pyrazol-4-yl)-2-methyl-1H-indol-3-ylsulfanyl]-phenyl}-acetic acid], below 300 nM.
Under `Cc1c(Sc2cccc(C(=O)O)c2)c2ccc(Cl)cc2n1-c1cnn(-c2ccc(F)cc2)c1` [Compound 1-71, 3-{6-Chloro-1-[1-(4-fluoro-phenyl)-1H-pyrazol-4-yl]-2-methyl-1H-indol-3-ylsulfanyl}-benzoic acid] stands below 300 nM; under `CCCCn1cc(-n2c(C)c(Sc3cccc(C(=O)O)c3)c3ccc(Cl)cc32)cn1` [Compound 1-72, 3-[1-(1-Butyl-1H-pyrazol-4-yl)-6-chloro-2-methyl-1H-indol-3-ylsulfanyl]-benzoic acid], below 300 nM; under `CCc1cncc(-n2c(C)c(Sc3cccc(C(=O)O)c3F)c3ccc(Cl)cc32)c1` [Compound 1-73, 3-[6-Chloro-1-(5-ethyl-pyridin-3-yl)-2-methyl-1H-indol-3-ylsulfanyl]-2-fluoro-benzoic acid], below 300 nM.

A word on the IC50: it is the point on the concentration scale where inhibition reaches its midpoint.
